According to ChEMBL document CHEMBL3392969, “SAR156497, an exquisitely selective inhibitor of aurora kinases” (J Med Chem, 2015):
pIC50, pKi: −log10 of the molar value.

Assays:
[1] = target: Aurora kinase B (Homo sapiens, UniProt Q96GD4)
Description: Inhibition of poly-histidine tagged full length recombinant aurora B (unknown origin) assessed as phosphorylation of NuMA-histidine substrate by scintillation counting analysis

[2] = in vitro; settings: human, liver microsomes
Description: Metabolic stability human liver microsomes assessed as stability at 5 uM by LC/MS-MS analysis

[3] = in vitro; settings: mouse, liver microsomes
Description: Metabolic stability mouse liver microsomes assessed as stability at 5 uM by LC/MS-MS analysis

[4] = target: T1, Cytochrome P450 3A4 (Homo sapiens, UniProt P08684)
Description: Inhibition of human recombinant CYP3A4 co-expressed with human P450 reductase/human b5 reductase using 7-benzyloxyquinoline substrate

[5] = in vivo; settings: mouse
Description: Volume of distribution in mouse

[6] = Plasma concentration in human HCT116 cells xenografted in SCID mouse at 50 mg/kg/day, sc infusion after 8 hrs
[7] = Antitumor activity against human HCT116 cells xenografted in SCID mouse assessed as decrease in […] positive cells at 25 mg/kg, sc after 24 hrs infusion schedule; settings: HCT-116, sc
[8] = in vivo; settings: mouse; remark: listed apart in the source
[9] = target: T1, Cytochrome P450 3A4; remark: listed apart in the source
Description: Inhibition of human recombinant CYP3A4 in liver microsomes by mechanism based inhibition assay

[10] = tested on: HeLa; assay: cells; settings: Homo sapiens
Description: (§1) Antiproliferative activity against human HeLa cells assessed as 14C-thymidine incorporation by Micro-Beta radioactivity counting analysis

[11] = in vitro; settings: human, Caco-2
Description: Permeability across human Caco2 cells

[12] = Antitumor activity against human HCT116 cells xenografted in SCID mouse assessed as decrease in […] positive cells at 50 mg/kg, sc after 24 hrs infusion schedule; settings: HCT-116, sc
[13] = Antitumor activity against human HCT116 cells xenografted in SCID mouse assessed as tumor growth at 25 mg/kg, sc after 24 hrs infusion schedule; settings: route subcutaneous
[14] = in vivo; settings: mouse, po
Description: Oral bioavailability in mouse

[15] = target: T2, Aurora kinase C (Homo sapiens, UniProt Q9UQB9)
T2 sequence (Q9UQB9 whole entry): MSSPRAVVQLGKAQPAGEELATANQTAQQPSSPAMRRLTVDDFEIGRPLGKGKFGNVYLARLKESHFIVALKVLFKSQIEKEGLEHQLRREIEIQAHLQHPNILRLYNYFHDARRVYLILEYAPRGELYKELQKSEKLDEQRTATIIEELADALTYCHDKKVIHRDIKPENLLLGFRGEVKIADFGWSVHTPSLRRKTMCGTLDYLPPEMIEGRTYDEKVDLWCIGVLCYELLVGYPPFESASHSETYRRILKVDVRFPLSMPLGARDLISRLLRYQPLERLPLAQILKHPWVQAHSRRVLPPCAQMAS
Description: Inhibition of poly-histidine tagged full length recombinant aurora C (unknown origin) assessed as phosphorylation of NuMA-histidine substrate by scintillation counting analysis

[16] = Antitumor activity against human HCT116 cells xenografted in SCID mouse assessed as tumor growth at 25 mg/kg/day, sc after 48 hrs infusion schedule; settings: route subcutaneous
[17] = Antitumor activity against human HCT116 cells xenografted in SCID mouse assessed as decrease in […] positive cells at 25 mg/kg/day, sc after 48 hrs infusion schedule; settings: HCT-116, sc
[18] = tested on: PBMC; assay: cells; settings: Homo sapiens, 96 h
Description: Cytotoxicity against human hematological tumor PBMC assessed as viability after 96 hrs by MTS assay

[19] = tested on: HeLa
Description: as §1

T1 sequence (P08684 whole entry): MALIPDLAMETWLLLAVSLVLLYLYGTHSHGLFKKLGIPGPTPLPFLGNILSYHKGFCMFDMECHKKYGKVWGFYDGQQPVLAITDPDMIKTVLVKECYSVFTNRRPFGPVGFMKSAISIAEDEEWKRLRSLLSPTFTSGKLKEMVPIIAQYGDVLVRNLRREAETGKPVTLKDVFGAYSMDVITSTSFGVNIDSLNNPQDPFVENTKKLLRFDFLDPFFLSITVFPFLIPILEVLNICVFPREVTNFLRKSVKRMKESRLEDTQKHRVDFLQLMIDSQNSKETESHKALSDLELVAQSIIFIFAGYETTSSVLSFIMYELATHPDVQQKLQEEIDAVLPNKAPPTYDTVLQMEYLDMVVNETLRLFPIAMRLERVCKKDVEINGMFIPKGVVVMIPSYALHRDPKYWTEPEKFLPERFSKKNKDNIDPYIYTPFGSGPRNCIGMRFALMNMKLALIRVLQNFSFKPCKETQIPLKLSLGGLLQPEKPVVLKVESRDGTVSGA
Sequence of Aurora kinase B (Q96GD4 whole entry): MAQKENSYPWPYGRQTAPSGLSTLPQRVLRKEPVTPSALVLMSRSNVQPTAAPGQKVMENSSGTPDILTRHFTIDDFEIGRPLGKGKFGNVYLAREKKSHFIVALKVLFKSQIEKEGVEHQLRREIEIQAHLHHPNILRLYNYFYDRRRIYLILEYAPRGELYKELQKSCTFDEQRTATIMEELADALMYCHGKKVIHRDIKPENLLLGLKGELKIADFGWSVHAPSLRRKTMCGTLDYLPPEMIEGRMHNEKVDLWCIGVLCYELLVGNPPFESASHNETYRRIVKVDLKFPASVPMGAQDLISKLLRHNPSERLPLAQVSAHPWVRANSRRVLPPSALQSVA

Row | Structure (SMILES) | pIC50 [1] | remaining at 5 µM [2] [%] | remaining at 5 µM [3] [%] | pIC50 [10] | further results
1 | CCOC(=O)c1[nH]cc2c1NC1=C(C(=O)CCC1)C2c1ccc(Sc2nc3c(F)cc(F)cc3[nH]2)o1 (stereo not given) | 8.40 | 66 | 36 | – | pIC50 [4]: 6.00
2 | CCOC(=O)c1[nH]cc2c1NC1=C(C(=O)CN(C(=O)CN)C1)[C@H]2c1ccc(Sc2nc3ccccc3[nH]2)o1 | 8.40 | 65 | 30 | – | pIC50 [4]: 6.30
3 | CCOC(=O)c1[nH]cc2c1NC1=C(C(=O)CN(C(=O)CN)C1)[C@H]2c1ccc(Sc2nc3c(F)cccc3[nH]2)o1 | 8.70 | < 40 | 17 | – | –
4 | CCOC(=O)c1[nH]cc2c1NC1=C(C(=O)CCC1)[C@H]2c1cccc(Oc2nc3ccccc3[nH]2)c1 | 9.00 | 53 | 32 | 7.17 | Vd [5]: 0.14 L/kg; concentration at 8 h [6]: 63 µM; inhibition in vivo at 25 mg/kg [7]: 19%; half-life [8]: 2.4 h; pKi [9]: 6.00; Papp [11]: 6 ×10⁻⁶ cm/s; inhibition in vivo at 50 mg/kg [12]: 47%; Activity [13]: 59%; bioavailability [14]: 64%; pIC50 [15]: 8.52; Activity [16]: 19%; inhibition in vivo at 25 mg/kg/day [17]: 16%; pIC50 [18]: < 5.00
5 | CCOC(=O)c1[nH]cc2c1NC1=C(C(=O)CCC1)C2c1cc(Sc2nc3ccccc3[nH]2)cs1 (racemic) | 8.70 | – | – | 5.82 | –
6 | O=C1CNCC2=C1C(c1cccc(Oc3cc(Cl)cc(Cl)c3)c1)c1c[nH]nc1N2 (racemic) | – | – | – | < 5.00 | –
7 | O=C1CNCC2=C1C(c1cccc(Oc3ccccc3)c1)c1c[nH]nc1N2 (racemic) | – | – | – | < 5.00 | –
8 | O=C1CNCC2=C1C(c1cccc(Oc3ccc(Cl)cc3)c1)c1c[nH]nc1N2 (racemic) | – | – | – | < 5.00 | –
9 | COc1ccc(Oc2cccc(C3C4=C(CNCC4=O)Nc4n[nH]cc43)c2)cc1 (racemic) | – | – | – | < 5.00 | –
10 | O=C1CNCC2=C1C(c1cccc(Oc3ccc(Cl)c(Cl)c3)c1)c1c[nH]nc1N2 (racemic) | – | – | – | < 5.00 | –
11 | O=C1CNCC2=C1C(c1ccc(Sc3nc4ccccc4[nH]3)o1)c1c[nH]nc1N2 (racemic) | – | – | – | < 5.00 | –
12 | O=C1CCCC2=C1C(c1ccc(Sc3nc4ccccc4[nH]3)o1)c1cn[nH]c1N2 (racemic) | 8.30 | – | – | 6.52 | –
13 | O=C1CCCC2=C1C(c1ccc(Sc3nc4ccccc4[nH]3)o1)c1n[nH]cc1N2 (racemic) | 6.30 | – | – | < 5.00 | –
14 | CCOC(=O)c1[nH]nc2c1NC1=C(C(=O)CCC1)C2c1ccc(Sc2nc3ccccc3[nH]2)o1 (racemic) | 7.48 | – | – | 5.11 | –
15 | NC(=O)c1[nH]nc2c1NC1=C(C(=O)CCC1)C2c1ccc(Sc2nc3ccccc3[nH]2)o1 (racemic) | 7.72 | – | – | < 5.00 | –
16 | Nc1nc(O)c2c(n1)NC1=C(C(=O)CCC1)C2c1ccc(Sc2nc3ccccc3[nH]2)o1 (racemic) | – | – | – | < 5.00 | –
17 | COC(=O)c1csc2c1NC1=C(C(=O)CCC1)C2c1ccc(Sc2nc3ccccc3[nH]2)o1 (racemic) | 8.30 | – | – | 6.90 | –
18 | CCOC(=O)c1[nH]cc2c1NC1=C(C(=O)CCC1)C2c1ccc(Sc2nc3ccccc3[nH]2)o1 (racemic) | – | – | – | – | pIC50 [19]: 7.82
19 | CCOC(=O)c1[nH]cc2c1NC1=C(C(=O)CNC1)C2c1ccc(Sc2nc3ccccc3[nH]2)o1 (racemic) | 8.70 | 66 | 60 | – | pIC50 [4]: 6.77
20 | CCOC(=O)c1[nH]cc2c1NC1=C(C(=O)CCC1)C2c1ccc(Sc2nc3cc(F)ccc3[nH]2)o1 (racemic) | – | 73 | 77 | – | pIC50 [4]: 4.92
21 | CCOC(=O)c1[nH]cc2c1NC1=C(C(=O)CCC1)C2c1ccc(Sc2nc3cccc(F)c3[nH]2)o1 (racemic) | 8.22 | 47 | 58 | – | pIC50 [4]: 5.35
22 | CCOC(=O)c1[nH]cc2c1NC1=C(C(=O)CCC1)C2c1ccc(Sc2nc3cc(F)c(F)cc3[nH]2)o1 (racemic) | – | 58 | 55 | – | pIC50 [4]: 5.08
23 | CCOC(=O)c1[nH]cc2c1NC1=C(C(=O)CCC1)C2c1ccc(Sc2nc3ccc(F)c(F)c3[nH]2)o1 (racemic) | – | 66 | 66 | – | pIC50 [4]: 4.47

Row | Structure (SMILES) | pIC50 [1] | remaining at 5 µM [2] [%] | remaining at 5 µM [3] [%] | pIC50 [10] | further results
24 | CCOC(=O)c1[nH]cc2c1NC1=C(C(=O)CCC1)C2c1ccc(Sc2nc3c(F)c(F)c(F)cc3[nH]2)o1 (racemic) | – | 46 | 22 | – | –
25 | CCOC(=O)c1[nH]cc2c1NC1=C(C(=O)CCC1)C2c1ccc(Sc2nc3cccc(Cl)c3[nH]2)o1 (racemic) | 8.15 | 68 | 85 | – | pIC50 [4]: 7.30
26 | CCOC(=O)c1[nH]cc2c1NC1=C(C(=O)CCC1)C2c1ccc(Sc2nc3cc(Cl)ccc3[nH]2)o1 (racemic) | – | 90 | 88 | – | –
27 | CCOC(=O)c1[nH]cc2c1NC1=C(C(=O)CCC1)C2c1ccc(Sc2nc3cccnc3[nH]2)o1 (racemic) | – | 49 | 49 | – | –
28 | CCOC(=O)c1[nH]cc2c1NC1=C(C(=O)CCC1)C2c1ccc(Sc2nc3c(O)cccc3[nH]2)o1 (racemic) | 8.10 | 40 | 37 | – | pIC50 [4]: 6.31
29 | CCOC(=O)c1[nH]cc2c1NC1=C(C(=O)CCC1)C2c1ccc(Sc2nc3c(N)cccc3[nH]2)o1 (racemic) | 7.60 | 23 | 35 | – | –
30 | CCOC(=O)c1[nH]cc2c1NC1=C(C(=O)CN(CC)C1)C2c1ccc(Sc2nc3ccccc3[nH]2)o1 (racemic) | 8.22 | 65 | 99 | – | –
31 | CCOC(=O)c1[nH]cc2c1NC1=C(C(=O)CNC1)C2c1ccc(Sc2nc3cccc(Cl)c3[nH]2)o1 (racemic) | 8.30 | – | – | – | –
32 | CCOC(=O)c1[nH]cc2c1NC1=C(C(=O)CNC1)C2c1ccc(Sc2nc3c(F)cccc3[nH]2)o1 (racemic) | 8.52 | – | – | – | –
33 | CCOC(=O)c1[nH]cc2c1NC1=C(C(=O)CN(C(=O)OC(C)(C)C)C1)C2c1ccc(Sc2nc3ccccc3[nH]2)o1 (racemic) | 7.59 | – | – | – | –
34 | CCOC(=O)c1[nH]cc2c1NC1=C(C(=O)CN(Cc3ccccc3)C1)C2c1ccc(Sc2nc3ccccc3[nH]2)o1 (racemic) | 8.10 | – | – | – | –
35 | CCOC(=O)c1[nH]cc2c1NC1=C(C(=O)CCC1)C2c1ccc(Sc2nc3ccccc3[nH]2)s1 (racemic) | 6.74 | – | – | 5.34 | –
36 | CCOC(=O)c1[nH]cc2c1NC1=C(C(=O)CCC1)C2c1cnc(Sc2nc3ccccc3[nH]2)s1 (racemic) | – | – | – | < 5.00 | –
37 | CCOC(=O)c1[nH]cc2c1NC1=C(C(=O)CCC1)C2c1cccc(Sc2nc3ccccc3[nH]2)c1 (racemic) | 8.15 | – | – | 5.01 | –
38 | CCOC(=O)c1[nH]cc2c1NC1=C(C(=O)CCC1)C2c1cccc(Sc2nc3ccccc3[nH]2)n1 (racemic) | 8.15 | – | – | 5.36 | –
39 | CCOC(=O)c1[nH]cc2c1NC1=C(C(=O)CCC1)C2c1ccnc(Sc2nc3ccccc3[nH]2)c1 (racemic) | 5.96 | – | – | < 5.00 | –
40 | CCOC(=O)c1[nH]cc2c1NC1=C(C(=O)CCC1)C2c1cccc(Oc2nc3ccccc3[nH]2)c1 (racemic) | 7.92 | – | – | 6.70 | –
41 | O=C1CCCC2=C1C(c1ccc(Sc3nc4ccccc4[nH]3)o1)c1c[nH]cc1N2 (single isomer, unassigned; (+)) | 6.90 | – | – | 5.43 | –
42 | CCOC(=O)c1[nH]cc2c1NC1=C(C(=O)CCC1)C2c1ccc(Sc2nc3ccccc3[nH]2)o1 (single isomer, unassigned; (+)) | – | 69 | 83 | – | pIC50 [19]: 7.80; pIC50 [4]: 6.72
43 | COC(=O)c1[nH]cc2c1NC1=C(C(=O)CCC1)C2c1ccc(Sc2nc3ccccc3[nH]2)o1 (single isomer, unassigned; (+)) | – | – | – | 7.59 | –
44 | O=C1CCCC2=C1C(c1ccc(Sc3nc4ccccc4[nH]3)o1)c1c[nH]c(C(=O)O)c1N2 (single isomer, unassigned; (+)) | 7.80 | – | – | 5.06 | –
45 | CCOC(=O)c1[nH]cc2c1NC1=C(C(=O)CCC1)C2c1ccc(Sc2nc3ccccc3[nH]2)o1 (single isomer, unassigned; (-)) | – | – | – | – | pIC50 [19]: 5.15
